Measured values published in patent US4272437A, “Antibacterial agents, and 4-thio azetidinone intermediates” (priority 1979, dated 1981).
≈ marks a conversion by molar mass, not a printed value. Read-outs that look alike come from different tables or passages of the source.

Assays:
[1] = test system: Str. pneumoniae A-9585; assay: MIC, tube dilution, Streptococcus pneumoniae A9585; assay type: cell-based; conditions: overnight 37° C., Nutrient Broth; for Minimum Inhibitory Concentration (M.I.C.): Str. pneumoniae A9585
Text: (§1) Representative compounds of the present invention were subjected to in vitro antibiotic screening against a variety of microorganisms.

[2] = test system: Str. pyogenes A-9604; assay: MIC, tube dilution, Streptococcus pyogenes A9604; assay type: cell-based; conditions: overnight 37° C., Nutrient Broth; for Minimum Inhibitory Concentration (M.I.C.): Str. pyogenes A9604
Text: as §1

[3] = test system: Staph. aureus A-9537; assay: MIC, tube dilution, Staphylococcus aureus A9537; assay type: cell-based; conditions: overnight 37° C., Nutrient Broth; for Minimum Inhibitory Concentration (M.I.C.): Staph. aureus A9537
Text: as §1

[4] = test system: Staph. aureus A-9537 and 50% serum; assay: MIC, tube dilution, Staph. aureus A9537 + 50% serum; assay type: cell-based, Staphylococcus aureus; conditions: overnight 37° C.
Text: as §1

[5] = test system: Staph. aureus (Pen-Res) A-9606; assay: MIC, tube dilution, Staphylococcus aureus A9606 (Pen-Res); assay type: cell-based; conditions: Staph. aureus A9606 (Pen-Res), overnight 37° C.
Text: as §1

[6] = test system: Staph. aureus (Meth-Res) A-15097; assay: MIC, tube dilution, Staphylococcus aureus A15097 (Meth-Res); assay type: cell-based; conditions: Staph. aureus A15097 (Meth-Res), overnight 37° C.
Text: as §1

[7] = test system: Str. faecalis A-20688; assay: MIC, tube dilution, Streptococcus faecalis A20688; assay type: cell-based; conditions: overnight 37° C.
Text: as §1

[8] = test system: E. coli A-15119; assay: MIC, tube dilution, Escherichia coli A15119; assay type: cell-based; conditions: overnight 37° C.
Text: as §1

[9] = test system: E. coli A-20341-1; assay: MIC, tube dilution, Escherichia coli A20341-1; assay type: cell-based
Text: as §1

[10] = test system: K. pneumoniae A-15130; assay: MIC, tube dilution, Klebsiella pneumoniae A15130; assay type: cell-based; conditions: overnight 37° C.
Text: as §1

[11] = test system: Klebsiella species A20468; assay: MIC, tube dilution, Klebsiella species A20468; assay type: cell-based; conditions: Klebsiella species (K. pneumoniae) A20468, overnight 37° C.
Text: as §1

[12] = test system: Pr. mirabilis A-9900; assay: MIC, tube dilution, Proteus mirabilis A9900; assay type: cell-based; conditions: overnight 37° C.
Text: as §1

[13] = test system: Pr. morganii A-15153; assay: MIC, tube dilution, Proteus morganii A15153; assay type: cell-based; conditions: overnight 37° C.
Text: as §1

[14] = test system: Providencia stuartii A21205; assay: MIC, tube dilution, Providencia stuartii (Pr. rettgeri) A21205; assay type: cell-based
Text: as §1

[15] = test system: Ser. marcescens A-20019; assay: MIC, tube dilution, Serratia marcescens A20019; assay type: cell-based; conditions: overnight 37° C.
Text: as §1

[16] = test system: Ent. cloacae A-9659; assay: MIC, tube dilution, Enterobacter cloacae A9659; assay type: cell-based; conditions: overnight 37° C.
Text: as §1

[17] = test system: Ent. cloacae A-9656; assay: MIC, tube dilution, Enterobacter cloacae A9656; assay type: cell-based; conditions: overnight 37° C.; for MIC: read-out: Minimum Inhibitory Concentration (M.I.C.)
Text: as §1

[18] = test system: Ps. aeruginosa A-9843A; assay: MIC, tube dilution, Pseudomonas aeruginosa A9843A; assay type: cell-based; conditions: overnight 37° C.
Text: as §1

[19] = test system: Ps. aeruginosa A-21213; assay: MIC, tube dilution, Pseudomonas aeruginosa A21213; assay type: cell-based; conditions: overnight 37° C.
Text: as §1

[20] = test system: Proteus rettgeri A21203; assay: MIC, tube dilution, Proteus rettgeri A21203; assay type: cell-based; conditions: Providencia rettgeri, A21203, Proteus rettgeri A21203; overnight 37° C.; read-out: Minimum Inhibitory Concentration (M.I.C.)
Text: as §1

[21] = test system: Proteus vulgaris A21559; assay: MIC, tube dilution, Proteus vulgaris A21559; assay type: cell-based; conditions: Proteus vulgaris, A21559, Proteus vulgaris A21559; overnight 37° C.; read-out: Minimum Inhibitory Concentration (M.I.C.)
Text: as §1

[22] = test system: S. aureus A9537; assay: In vivo protection of mice, lethal infection with S. aureus A9537; conditions: Staphylococcus aureus, A9537, im, IM, 2 treatments, 1 × 10^6 organisms; read-out: PD50
Procedure: Representative compounds of the present invention were also tested in vivo in mice and their PD50 (dose of compound in mg/kg required to protect 50% of the treated mice against an otherwise lethal infection of a micro-organism) values determined with respect to the test organisms shown below.

[23] = Mouse blood levels after intramuscular administration; assay type: in vivo; conditions: average of 6 mice, read-out: Mouse blood level
Procedure: Mouse blood levels after intramuscular administration of representative compounds of the present invention were determined and are reported in the table below.

[24] = Staphylococcus aureus, read-out: Minimum Inhibitory Concentration (M.I.C.)

## CCC1C(=O)N2C(C(=O)[O-])=C(C)S[C@H]12.[Na+] (stereo partly drawn) [1 (trans), Sodium 6-Ethyl-2-methylpenem-3-carboxylate]
[1]
  Minimum Inhibitory Concentration (M.I.C.): 2 µg/mL
[2]
  Minimum Inhibitory Concentration (M.I.C.): 4 µg/mL
[3]
  Minimum Inhibitory Concentration (M.I.C.): 8 µg/mL
[4]
  Minimum Inhibitory Concentration (M.I.C.): > 63 µg/mL
[5]
  Minimum Inhibitory Concentration (M.I.C.): 8 µg/mL
[6]
  Minimum Inhibitory Concentration (M.I.C.): 8 µg/mL
[7]; Str. faecalis A20688
  Minimum Inhibitory Concentration (M.I.C.): > 125 µg/mL
[8]; E. coli A15119
  Minimum Inhibitory Concentration (M.I.C.): 125 µg/mL
[9]; E. coli A20341-1; overnight 37° C.
  Minimum Inhibitory Concentration (M.I.C.): 125 µg/mL
[10]; K. pneumoniae A15130
  Minimum Inhibitory Concentration (M.I.C.): > 125 µg/mL
[11]
  Minimum Inhibitory Concentration (M.I.C.): > 125 µg/mL
[12]; Proteus mirabilis A9900
  Minimum Inhibitory Concentration (M.I.C.): 125 µg/mL
[13]; Proteus morganii A15153
  Minimum Inhibitory Concentration (M.I.C.): > 125 µg/mL
[14]; Providencia stuartii (Pr. rettgeri) A21205, overnight 37° C.
  Minimum Inhibitory Concentration (M.I.C.): 63 µg/mL
[15]; Serratia marcescens A20019
  Minimum Inhibitory Concentration (M.I.C.): > 125 µg/mL
[16]; Enterobacter cloacae A9659
  Minimum Inhibitory Concentration (M.I.C.): > 125 µg/mL
[17]; Enterobacter cloacae A9656
  Minimum Inhibitory Concentration (M.I.C.): > 125 µg/mL
[18]; Pseudomonas aeruginosa A9843A
  Minimum Inhibitory Concentration (M.I.C.): > 125 µg/mL
[19]; Pseudomonas aeruginosa A21213
  Minimum Inhibitory Concentration (M.I.C.): > 125 µg/mL

## NCCOCC1=C(C(=O)O)N2C(=O)CC2S1 (stereo not shown) [Example 86, 2-(2-Aminoethoxymethyl)penem-3-carboxylic Acid]
[1]; Streptococcus pneumoniae, A9585, Str. pneumoniae A9585, read-out: Minimum Inhibitory Concentration (M.I.C.)
  MIC: 0.13 µg/mL (≈ 0.532 µM)
[2]; Streptococcus pyogenes, A9604, Str. pyogenes A9604, read-out: Minimum Inhibitory Concentration (M.I.C.)
  MIC: 0.13 µg/mL (≈ 0.532 µM)
[3]; Staphylococcus aureus, A9537, Staph. aureus A9537, read-out: Minimum Inhibitory Concentration (M.I.C.)
  MIC: 0.13 µg/mL (≈ 0.532 µM)
[4]; [24]
  MIC: 1 µg/mL
[5]; [24]
  MIC: 32 µg/mL (≈ 131 µM)
[6]; [24]
  MIC: 125 µg/mL (≈ 512 µM)
[7]; Enterococcus faecalis, A20688, Str. faecalis A20688, read-out: Minimum Inhibitory Concentration (M.I.C.)
  MIC: 32 µg/mL (≈ 131 µM)
[8]; Escherichia coli, A15119, E. coli A15119, read-out: Minimum Inhibitory Concentration (M.I.C.)
  MIC: 2 µg/mL (≈ 8.19 µM)
[9]; Escherichia coli, A203411, E. coli A20341-1; overnight 37° C.; read-out: Minimum Inhibitory Concentration (M.I.C.)
  MIC: 8 µg/mL (≈ 32.8 µM)
[10]; Klebsiella pneumoniae, A15130, K. pneumoniae A15130, read-out: Minimum Inhibitory Concentration (M.I.C.)
  MIC: 4 µg/mL (≈ 16.4 µM)
[11]; read-out: Minimum Inhibitory Concentration (M.I.C.)
  MIC: > 125 µg/mL
[12]; Proteus mirabilis, A9900, Proteus mirabilis A9900, read-out: Minimum Inhibitory Concentration (M.I.C.)
  MIC: 2 µg/mL (≈ 8.19 µM)
[13]; Morganella morganii, A15153, Proteus morganii A15153, read-out: Minimum Inhibitory Concentration (M.I.C.)
  MIC: 8 µg/mL (≈ 32.8 µM)
[15]; Serratia marcescens, A20019, Serratia marcescens A20019, read-out: Minimum Inhibitory Concentration (M.I.C.)
  MIC: 2 µg/mL (≈ 8.19 µM)
[16]; Enterobacter cloacae, A9659, Enterobacter cloacae A9659, read-out: Minimum Inhibitory Concentration (M.I.C.)
  MIC: 8 µg/mL (≈ 32.8 µM)
[17]; Enterobacter cloacae, A9656, Enterobacter cloacae A9656
  MIC: 4 µg/mL (≈ 16.4 µM)
[18]; Pseudomonas aeruginosa, A9843A, read-out: Minimum Inhibitory Concentration (M.I.C.), Pseudomonas aeruginosa A9843A
  MIC: 63 µg/mL (≈ 258 µM)
[19]; Pseudomonas aeruginosa, A21213, Pseudomonas aeruginosa A21213, read-out: Minimum Inhibitory Concentration (M.I.C.)
  MIC: 125 µg/mL (≈ 512 µM)
[20]
  MIC: 2 µg/mL (≈ 8.19 µM)
[21]
  MIC: 8 µg/mL (≈ 32.8 µM)
[22]
  ED50: 1.9 mg/kg
[23]; 10 minutes after IM 40 mg/kg
  concentration at 10 min: 36000 ng/mL
[23]; 20 minutes after IM 40 mg/kg
  concentration at 20 min: 26300 ng/mL
[23]; 30 minutes after IM 40 mg/kg
  concentration at 0.5 h: 16500 ng/mL
[23]; 45 minutes after IM 40 mg/kg
  concentration at 0.75 h: 7500 ng/mL
[23]; 60 minutes after IM 40 mg/kg
  concentration at 1 h: 4000 ng/mL
[23]; 90 minutes after IM 40 mg/kg
  concentration at 1.5 h: < 3100 ng/mL
[23]; 120 minutes after IM 40 mg/kg
  concentration at 2 h: < 3100 ng/mL

## CC1=C(C(=O)O)N2C(=O)C[C@H]2S1 [Preparation 4(-), (-)-2-Methylpenem-3-carboxylic Acid]
[1]
  Minimum Inhibitory Concentration (M.I.C.): 8 µg/mL
[2]
  Minimum Inhibitory Concentration (M.I.C.): 8 µg/mL
[3]
  Minimum Inhibitory Concentration (M.I.C.): 32 µg/mL
[4]
  Minimum Inhibitory Concentration (M.I.C.): > 63 µg/mL
[9]; Escherichia coli, A203411; E. coli A20341-1; overnight 37° C.; read-out: Minimum Inhibitory Concentration (M.I.C.)
  MIC: > 125 µg/mL
[11]
  Minimum Inhibitory Concentration (M.I.C.): > 125 µg/mL
[14]; Providencia stuartii, A21205, read-out: Minimum Inhibitory Concentration (M.I.C.)
  MIC: > 125 µg/mL
[17]; Enterobacter cloacae A9656
  MIC: > 125 µg/mL
